MEC data for 23 compounds are collected here from US9624214B2, “Amino-substituted imidazo[1,2-a]pyridinecarboxamides and their use” (BAYER PHARMA AKTIENGESELLSCHAFT, priority 2012, dated 2017).

The target in this experiment is T1, recombinant guanylate cyclase reporter cell line (Rattus norvegicus, UniProt P19686+P20595).
T1 construct: expressed in transfected cells
T1 sequence (P20595 1-619): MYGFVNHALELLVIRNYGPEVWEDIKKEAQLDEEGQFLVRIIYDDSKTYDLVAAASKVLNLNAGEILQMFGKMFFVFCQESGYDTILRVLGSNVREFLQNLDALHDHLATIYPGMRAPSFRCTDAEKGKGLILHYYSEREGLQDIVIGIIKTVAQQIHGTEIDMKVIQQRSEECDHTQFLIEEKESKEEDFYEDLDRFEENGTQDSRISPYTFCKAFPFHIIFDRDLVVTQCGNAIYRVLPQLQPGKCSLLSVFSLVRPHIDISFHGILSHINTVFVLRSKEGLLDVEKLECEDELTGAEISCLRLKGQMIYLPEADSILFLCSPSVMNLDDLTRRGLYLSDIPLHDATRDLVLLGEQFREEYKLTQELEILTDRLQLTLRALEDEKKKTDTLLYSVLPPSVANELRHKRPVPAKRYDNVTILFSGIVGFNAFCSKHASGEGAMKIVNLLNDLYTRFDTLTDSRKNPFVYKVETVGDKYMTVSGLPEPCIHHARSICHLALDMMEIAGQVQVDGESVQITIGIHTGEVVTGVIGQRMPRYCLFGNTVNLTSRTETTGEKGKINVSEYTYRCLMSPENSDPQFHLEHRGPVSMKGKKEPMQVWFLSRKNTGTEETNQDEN
T1 sequence (P19686 1-690): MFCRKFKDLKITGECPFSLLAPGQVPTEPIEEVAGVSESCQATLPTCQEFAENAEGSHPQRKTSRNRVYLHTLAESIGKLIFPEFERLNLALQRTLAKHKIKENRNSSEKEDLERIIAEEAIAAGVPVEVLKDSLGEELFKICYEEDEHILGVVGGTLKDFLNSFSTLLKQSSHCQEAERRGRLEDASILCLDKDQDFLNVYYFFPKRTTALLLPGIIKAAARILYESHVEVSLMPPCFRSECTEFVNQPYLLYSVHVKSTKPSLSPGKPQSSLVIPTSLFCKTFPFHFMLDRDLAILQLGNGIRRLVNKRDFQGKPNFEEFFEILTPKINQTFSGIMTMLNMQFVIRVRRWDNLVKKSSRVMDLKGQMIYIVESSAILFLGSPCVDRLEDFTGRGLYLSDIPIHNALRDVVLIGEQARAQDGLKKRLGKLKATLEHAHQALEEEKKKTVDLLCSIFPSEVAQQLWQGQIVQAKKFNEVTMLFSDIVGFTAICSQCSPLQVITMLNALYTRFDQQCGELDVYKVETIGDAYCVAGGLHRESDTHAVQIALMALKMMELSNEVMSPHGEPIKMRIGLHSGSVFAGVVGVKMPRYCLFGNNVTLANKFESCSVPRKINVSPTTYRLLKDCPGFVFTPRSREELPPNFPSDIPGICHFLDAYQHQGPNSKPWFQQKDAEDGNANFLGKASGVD
Description: B-2. Action on recombinant guanylate cyclase reporter cell line. The following applies: MEC = minimal effective concentration; in some cases mean values from individual determinations. The experiment is classed as cell-based. In outline:
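Cellular activity was measured in a reporter cell line expressing recombinant guanylate cyclase. Values are given as MEC, the minimal effective concentration, and some are means of individual determinations.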

Molecules are shown by their SMILES.

Consider `Cc1nc2c(OCc3c(F)cccc3F)cccn2c1C(=O)NCC(C)N1CCOCC1` (single isomer, unassigned; ent-8) [Example 180, ent-8-[(2,6-Difluorobenzyl)oxy]-2-methyl-N-[2-(morpholin-4-yl)propyl]imidazo[1,2-a]pyridine-3-carboxamide], for which the MEC turned out to be 1.00 µM.

Consider `Cc1nc2c(OCc3c(F)cccc3F)cccn2c1C(=O)NCC(C)N1CCOCC1` (single isomer, unassigned; ent-8) [Example 181, ent-8-[(2,6-Difluorobenzyl)oxy]-2-methyl-N-[2-(morpholin-4-yl)propyl]imidazo[1,2-a]pyridine-3-carboxamide], for which the MEC came to 1.00 µM.

Regarding `Cc1nc2c(OCc3c(F)cccc3F)cccn2c1C(=O)NC(CN1CCOCC1)c1ccccc1` (single isomer, unassigned; ent-8) [Example 182, ent-8-[(2,6-Difluorobenzyl)oxy]-2-methyl-N-[2-(morpholin-4-yl)-1-phenylethyl]imidazo[1,2-a]-pyridine-3-carboxamide], the MEC was found to be 3.00 µM.

For `Cc1nc2c(OCc3c(F)cccc3F)cccn2c1C(=O)NC(CN1CCOCC1)c1ccccc1` (single isomer, unassigned; ent-8) [Example 183, ent-8-[(2,6-Difluorobenzyl)oxy]-2-methyl-N-[2-(morpholin-4-yl)-1-phenylethyl]imidazo[1,2-a]-pyridine-3-carboxamide], the MEC came out at 1.00 µM.

Regarding `Cc1cc(OCc2c(F)cccc2F)c2nc(C)c(C(=O)NCC(C)N3CCOCC3)n2c1` (single isomer, unassigned; ent-8) [Example 186, ent-8-[(2,6-Difluorobenzyl)oxy]-2,6-dimethyl-N-[2-(morpholin-4-yl)propyl]imidazo[1,2-a]-pyridine-3-carboxamide], the MEC amounted to 0.30 µM.

Take `Cc1cc(OCc2c(F)cccc2F)c2nc(C)c(C(=O)NCC(C)N3CCOCC3)n2c1` (single isomer, unassigned; ent-8) [Example 187, ent-8-[(2,6-Difluorobenzyl)oxy]-2,6-dimethyl-N-[2-(morpholin-4-yl)propyl]imidazo[1,2-a]-pyridine-3-carboxamide]: the MEC was 0.30 µM.

Consider `Cc1nc2c(OCc3c(F)cccc3F)cccn2c1C(=O)NCC(C(C)C)N(C)C` (single isomer, unassigned; ent-8) [Example 188, ent-8-[(2,6-Difluorobenzyl)oxy]-N-[2-(dimethylamino)-3-methylbutyl]-2-methylimidazo[1,2-a]-pyridine-3-carboxamide], for which the MEC came to 1.00 µM.

As to `Cc1nc2c(OCc3c(F)cccc3F)cccn2c1C(=O)NCC(C(C)C)N(C)C` (single isomer, unassigned; ent-8) [Example 189, ent-8-[(2,6-Difluorobenzyl)oxy]-N-[2-(dimethylamino)-3-methylbutyl]-2-methylimidazo[1,2-a]-pyridine-3-carboxamide], the MEC turned out to be 3.00 µM.

`Cc1nc2c(OCc3c(F)cccc3F)cccn2c1C(=O)NC(CNCC(F)(F)F)c1ccc(F)c(F)c1` (single isomer, unassigned; ent-8) [Example 222, ent-8-[(2,6-Difluorobenzyl)oxy]-N-{1-(3,4-difluorophenyl)-2-[(2,2,2-trifluoroethyl)amino]ethyl}-2-methylimidazo[1,2-a]pyridine-3-carboxamide]: the MEC came out at 0.30 µM.

As to `CCC1CC(NC(=O)c2c(C)nc3c(OCc4c(F)cccc4F)cc(C)cn23)c2nc(C(F)(F)F)ccc2N1` (single isomer, unassigned; ent-8) [Example 325, ent-8-[(2,6-Difluorobenzyl)oxy]-N-[2-ethyl-6-(trifluoromethyl)-1,2,3,4-tetrahydro-1,5-naphthyridin-4-yl]-2,6-dimethylimidazo[1,2-a]pyridine-3-carboxamide], the MEC is 0.30 µM.

As to `Cc1cc(OCc2c(F)cccc2F)c2nc(C)c(C(=O)NC3CC(C)Nc4ccc(C(F)(F)F)nc43)n2c1` (single isomer, unassigned; ent-8) [Example 326, ent-8-[(2,6-Difluorobenzyl)oxy]-2,6-dimethyl-N-[2-methyl-6-(trifluoromethyl)-1,2,3,4-tetrahydro-1,5-naphthyridin-4-yl]imidazo[1,2-a]pyridine-3-carboxamide], the MEC turned out to be 0.30 µM.

On to `Cc1nc2c(OCc3c(F)cccc3F)cccn2c1C(=O)NC1CC2CCCC(C1)N2C1CC1` (centres unmarked) [Example 1, N-(9-Cyclopropyl-9-azabicyclo[3.3.1]non-3-yl)-8-[(2,6-difluorobenzyl)oxy]-2-methylimidazo[1,2-a]pyridine-3-carboxamide], for which the MEC stood at 0.10 µM.

Turning to `Cc1nc2c(OCc3c(F)cccc3F)cccn2c1C(=O)NC(CN)c1ccc(F)cc1F` (stereo not drawn) [Example 21, ent-N-[2-Amino-1-(2,4-difluorophenyl)ethyl]-8-[(2,6-difluorobenzyl)oxy]-2-methylimidazo[1,2-a]-pyridine-3-carboxamide], the MEC came out at 0.30 µM.

`Cc1nc2c(OCc3c(F)cccc3F)cc(Cl)cn2c1C(=O)NC(C)CN` (stereo not drawn) [Example 22, ent-N-(1-aminopropan-2-yl)-6-chloro-8-[(2,6-difluorobenzyl)oxy]-2-methylimidazo[1,2-a]-pyridine-3-carboxamide]: the MEC turned out to be 0.30 µM.

In the case of `Cc1nc2c(OCc3c(F)cccc3F)cc(Cl)cn2c1C(=O)NC(C)(C)CN` [Example 24, N-(1-amino-2-methylpropan-2-yl)-6-chloro-8-[(2,6-difluorobenzyl)oxy]-2-methylimidazo[1,2-a]pyridine-3-carboxamide], the MEC is 0.65 µM.

Take `Cc1cc(OCc2c(F)cccc2F)c2nc(C)c(C(=O)NC(C)(C)CN)n2c1` [Example 26, N-(1-amino-2-methylpropan-2-yl)-8-[(2,6-difluorobenzyl)oxy]-2,6-dimethylimidazo [1,2-a]-pyridine-3-carboxamide]: the MEC was found to be 0.30 µM.

`Cc1nc2c(OCc3c(F)cccc3F)cccn2c1C(=O)NC1CC2CCCC(C1)N2` (centres unmarked) [Example 27, N-(9-azabicyclo[3.3.1]non-3-yl)-8-[(2,6-difluorobenzyl)oxy]-2-methylimidazo[1,2-a]-pyridine-3-carboxamide]: the MEC stood at 1.00 µM.

Turning to `Cc1nc2c(OCc3c(F)cccc3F)cc(Cl)cn2c1C(=O)NCCC1(N)CCCCC1` [Example 33, N-[2-(1-Aminocyclohexyl)ethyl]-6-chloro-8-[(2,6-difluorobenzyl)oxy]-2-methylimidazo[1,2-a]-pyridine-3-carboxamide], the MEC was found to be 0.30 µM.

For `CC[C@@H](N)CNC(=O)c1c(C)nc2c(OCc3c(F)cccc3F)cc(Cl)cn12` [Example 35, ent-N-[(2R)-2-aminobutyl]-6-chloro-8-[(2,6-difluorobenzyl)oxy]-2-methylimidazo[1,2-a]-pyridine-3-carboxamide], the MEC came to 1.00 µM.

Take `Cc1nc2c(OCc3c(F)cccc3F)cc(Cl)cn2c1C(=O)NCCN` [Example 36, N-(2-aminoethyl)-6-chloro-8-[(2,6-difluorobenzyl)oxy]-2-methylimidazo[1,2-a]-pyridine-3-carboxamide]: the MEC is 1.00 µM.

`Cc1nc2c(OCc3c(F)cccc3F)cc(Cl)cn2c1C(=O)NCCCN` [Example 37, N-(3-aminopropyl)-6-chloro-8-[(2,6-difluoro-benzyl)oxy]-2-methylimidazo[1,2-a]pyridine-3-carboxamide]: the MEC was found to be 1.00 µM.

Take `Cc1nc2c(OCc3c(F)cccc3F)cccn2c1C(=O)NCC1(N)CC1` [Example 38, N-[(1-aminocyclopropyl)methyl]-8-[(2,6-difluorobenzyl)oxy]-2-methylimidazo[1,2-a]-pyridine-3-carboxamide]: the MEC was 0.40 µM.

With `Cc1nc2c(OCc3c(F)cccc3F)cc(Cl)cn2c1C(=O)NCC1(N)CC1` [Example 39, N-[(1-aminocyclopropyl)methyl]-6-chloro-8-[(2,6-difluorobenzyl)oxy]-2-methylimidazo[1,2-a]pyridine-3-carboxamide], the MEC turned out to be 0.10 µM.
